Assay [1] concerns the target Mucin-1 (Homo sapiens) (UniProt P15941). Put plainly: Inhibition of MUC1 nuclear import in human MCF7 cells assessed as decrease in nuclear MUC1-C levels at 75 uM incubated for 3 days by immunoblot analysis. Format: cell-based. Background: In western blotting, separated proteins are transferred to a membrane and probed.
In a further assay the test system is HCC1937. Put plainly: Growth inhibition of human HCC1937 cells assessed as reduction in cell number up to 150 uM incubated for 3 days by MTS assay. Format: functional, cell-based. On the technique in general: Tetrazolium assays rely on reduction of a dye to a coloured formazan, in cell work by metabolically active cells.
Assay [2] addresses Mucin-1 (Homo sapiens) (UniProt P15941). Put plainly: Inhibition of MUC1 in human BT474 cells assessed as reduction in MUC1-C expression at 25 to 75 uM incubated for 3 days by immunoblot analysis. Format: cell-based.
Assay [3] has as its system MCF-10A. Put plainly: Induction of cell membrane integrity loss in immortalized human MCF10A cells assessed as PI uptake level at 75 uM incubated for 3 days by propidium iodide staining based flow cytometry (reference value: 23%). Format: functional. (Flow cytometry measures light scatter and fluorescence of single cells or particles in a stream.)
The target of assay [4] is Mucin-1 (Homo sapiens) (UniProt P15941). Kind of assay: Inhibition of MUC1-CD dimerization in human MCF10A cells assessed as reduction in MUC1-C levels at 50 to 100 uM incubated for 3 days by immunoblot analysis. It counts as cell-based.
Mucin-1 (Homo sapiens), sequence (P15941 24-1097 limits assumed): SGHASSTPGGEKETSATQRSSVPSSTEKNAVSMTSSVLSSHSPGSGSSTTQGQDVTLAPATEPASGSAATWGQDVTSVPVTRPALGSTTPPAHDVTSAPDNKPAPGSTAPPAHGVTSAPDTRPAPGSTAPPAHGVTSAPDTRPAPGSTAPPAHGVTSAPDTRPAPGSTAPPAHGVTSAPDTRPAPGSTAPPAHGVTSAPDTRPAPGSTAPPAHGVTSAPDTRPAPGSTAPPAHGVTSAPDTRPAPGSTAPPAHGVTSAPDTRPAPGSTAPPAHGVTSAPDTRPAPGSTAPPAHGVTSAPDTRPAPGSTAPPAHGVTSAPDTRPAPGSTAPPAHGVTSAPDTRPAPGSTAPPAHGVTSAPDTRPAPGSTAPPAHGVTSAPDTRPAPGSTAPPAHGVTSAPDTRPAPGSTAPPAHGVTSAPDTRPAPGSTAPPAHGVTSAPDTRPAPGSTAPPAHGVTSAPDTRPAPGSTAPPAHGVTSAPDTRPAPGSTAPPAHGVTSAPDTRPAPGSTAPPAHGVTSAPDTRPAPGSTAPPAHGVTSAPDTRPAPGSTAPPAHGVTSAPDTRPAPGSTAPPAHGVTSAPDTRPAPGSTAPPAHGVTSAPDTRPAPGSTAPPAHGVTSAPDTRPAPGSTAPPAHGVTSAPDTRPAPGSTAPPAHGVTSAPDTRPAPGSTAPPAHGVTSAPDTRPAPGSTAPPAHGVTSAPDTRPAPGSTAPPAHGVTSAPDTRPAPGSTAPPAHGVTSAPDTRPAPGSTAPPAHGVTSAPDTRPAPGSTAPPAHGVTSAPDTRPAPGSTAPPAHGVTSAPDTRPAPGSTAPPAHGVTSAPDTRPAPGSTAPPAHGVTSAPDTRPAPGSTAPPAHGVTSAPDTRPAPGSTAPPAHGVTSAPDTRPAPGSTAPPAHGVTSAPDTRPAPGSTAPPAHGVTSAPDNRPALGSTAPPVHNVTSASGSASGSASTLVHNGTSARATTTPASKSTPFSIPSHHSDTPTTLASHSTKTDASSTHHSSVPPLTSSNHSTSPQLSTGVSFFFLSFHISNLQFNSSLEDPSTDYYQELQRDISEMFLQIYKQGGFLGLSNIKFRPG
Mucin-1 (Homo sapiens), sequence (P15941 1098-1255 limits assumed): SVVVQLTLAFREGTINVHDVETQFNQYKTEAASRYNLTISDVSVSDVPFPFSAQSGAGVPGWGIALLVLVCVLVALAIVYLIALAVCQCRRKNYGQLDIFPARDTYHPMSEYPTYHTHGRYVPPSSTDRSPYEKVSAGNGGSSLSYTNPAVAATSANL
Assay [5] has the same target. Kind of assay: Inhibition of MUC1-CD dimerization (unknown origin) expressed in HEK293 cells assessed as disruption of interaction between Flag-MUC1-CD and GFP-MUC1-CD by coimmunoprecipitation assay. It counts as cell-based.
The test system of assay [6] is BT-474. Kind of assay: Growth inhibition of human BT474 cells assessed as reduction in cell number up to 150 uM incubated for 3 days by MTS assay. Format: functional, cell-based.
In assay [7] the test system is MCF-10A. Put plainly: Induction of cell membrane integrity loss in immortalized human MCF10A cells assessed as PI uptake level at 50 uM incubated for 3 days by propidium iodide staining based flow cytometry (reference value: 23%). Format: functional.
For assay [8], the system named is MCF-10A. Put plainly: Induction of cell membrane integrity loss in immortalized human MCF10A cells at 75 uM incubated for 3 days by propidium iodide staining based flow cytometry. It counts as functional.
For assay [9], the system named is MCF7. Put plainly: Inhibition of colony formation in human MCF7 cells assessed as decrease in colonies at 50 to 75 uM incubated for 2 weeks by crystal violet staining based assay. Format: functional.
Assay [10] deals with MCF-10A. Kind of assay: Growth inhibition of immortalized human MCF10A cells assessed as reduction in cell number up to 100 uM incubated for 3 days by MTS assay. It counts as functional, cell-based.
Assay [11] concerns MCF-10A. Put plainly: Induction of cell membrane integrity loss in immortalized human MCF10A cells assessed as PI uptake level at 100 uM incubated for 3 days by propidium iodide staining based flow cytometry (reference value: 23%). It counts as functional.
The target in assay [12] is Mucin-1 (Homo sapiens) (UniProt P15941). Put plainly: Inhibition of MUC1 in human MCF7 cells assessed as decrease in MUC1 protein level in whole cell lysates at 75 uM incubated for 3 days by immunoblot analysis. Format: subcellular. Particulars: Lysate.
The subject of assay [13] is MCF7. Kind of assay: Reduction of MUC1 mRNA levels in human MCF7 cells at 75 uM incubated for 3 days by qRT-PCR analysis. It counts as functional, cell-based.
In assay [14] the test system is MCF7. Kind of assay: Inhibition of colony formation in human MCF7 cells assessed as decrease in colonies at 25 uM incubated for 2 weeks by crystal violet staining based assay. Format: functional, cell-based.
Assay [15] concerns MCF7. Put plainly: Growth inhibition in human MCF7 cells assessed as reduction in cell number at 75 uM incubated for 3 days in presence of MUC1 siRNA by MTS assay. Format: functional, cell-based.
The subject of assay [16] is MCF-10A. Put plainly: Induction of apoptosis in immortalized human MCF10A cells assessed as caspase-9 cleavage at 75 uM incubated for 3 days by immunoblot analysis. Format: functional, cell-based.
The test system of assay [17] is MCF7. Put plainly: Induction of cell membrane integrity loss in human MCF7 cells assessed as PI uptake level at 75 uM incubated for 3 days by propidium iodide staining based flow cytometry (reference value: 22%). Format: functional.
Assay [18] deals with Mucin-1 (Homo sapiens) (UniProt P15941). Put plainly: Inhibition of soluble unbound MUC1-CD dimerization (unknown origin) by immunoblot analysis. Particulars: concentration not given here.
The test system of assay [19] is BT-474. Put plainly: Inhibition of colony formation in human BT474 cells assessed as decrease in colonies at 25 to 75 uM incubated for 2 weeks by crystal violet staining based assay. It counts as functional, cell-based.
Assay [20] concerns MCF7. Put plainly: Induction of apoptosis in human MCF7 cells assessed as caspase-9 cleavage at 75 uM incubated for 3 days by immunoblot analysis. Format: functional, cell-based.

Active and inactive are the calls of the source. The calls are words filed in the database; no cut-off is given here.

On to `O=c1cc(-c2ccc(O)cc2)oc2cc(O)cc(O)c12` [APIGENIN], for which the inhibition entry on Mucin-1 (Homo sapiens) [1], on Mucin-1 (Homo sapiens) [2], at Mucin-1 (Homo sapiens) [4], at Mucin-1 (Homo sapiens) [5], on Mucin-1 (Homo sapiens) [12] and in the assay with MCF7 [14] was “Active” throughout. Also, the inhibition result in the assay on BT-474 [19] was “Active”. The “growth inhibition (GI)” value in the assay on HCC1937 and with MCF7 [15] was “inactive” each time. In addition, the Activity in the assay with MCF-10A [3] came out at 98%; with MCF-10A [7], 81%; in the assay with MCF-10A [11], 96%; with MCF7 [17] it was 64%. The “growth inhibition (GI)” value in the assay on BT-474 [6] and in the assay on MCF-10A [10] was “Active” each time. Also, the outcome in the assay with MCF-10A [8], in the assay on MCF7 [13], in the assay with MCF-10A [16] and in the assay on MCF7 [20] was Active. Further, the “inhibition (INH)” value with MCF7 [9] turned out to be 100%. At Mucin-1 (Homo sapiens) [18], this compound came in with an inhibition of 100%.

What is called inhibition is the share of the control response that was lost under treatment.

Source of the values: ChEMBL document CHEMBL4420073, “Small molecule inhibitors of MUC1 and methods of identifying the same” (2015).
